Reference: ChEMBL document CHEMBL1201862, “PubChem BioAssay data set” (2004)
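48-hour exposure; five concentrations; linearly interpolated endpoints. GI50 marks 50% less growth.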 The source made the active and inactive calls. No stated cut-off is given here; in the data, active = GI50 up to about 1.1 µM and inactive = higher.

Tests used:
Assay in all cases: inhibition of tumour cell growth, NCI panel, 48 h
UO-31 = system: UO-31
MOLT-4 = system: MOLT-4
SK-MEL-2 = system: SK-MEL-2
SK-MEL-28 = system: SK-MEL-28
HCT-15 = system: HCT-15
HOP-62 = system: HOP-62
NCI/ADR-RES = system: NCI/ADR-RES
HCC 2998 = system: HCC 2998
OVCAR-4 = system: OVCAR-4
M14 = system: M14
SN12C = system: SN12C
IGROV-1 = system: IGROV-1
OVCAR-8 = system: OVCAR-8
U-251 = system: U-251
SK-OV-3 = system: SK-OV-3
SNB-19 = system: SNB-19
RXF 393 = system: RXF 393
MCF7 = system: MCF7
HCT-116 = system: HCT-116
CCRF-CEM = system: CCRF-CEM

CCOC(=O)C(O)(NC(=O)c1ccccc1F)C(F)(F)F (stereo not given)
GI50 (UO-31): > 100 µM (inactive) | GI50 (MOLT-4): > 100 µM (inactive) | GI50 (SK-MEL-2): > 100 µM (inactive) | GI50 (SK-MEL-28): > 100 µM (inactive) | GI50 (HCT-15): > 100 µM | GI50 (HOP-62): > 100 µM (inactive) | GI50 (NCI/ADR-RES): > 100 µM (inactive) | GI50 (HCC 2998): > 100 µM (inactive) | GI50 (OVCAR-4): > 100 µM (inactive) | GI50 (M14): > 100 µM (inactive) | GI50 (SN12C): > 100 µM (inactive) | GI50 (IGROV-1): 84.5 µM (inactive) | GI50 (OVCAR-8): > 100 µM (inactive) | GI50 (U-251): > 100 µM (inactive) | GI50 (SK-OV-3): > 100 µM (inactive) | GI50 (SNB-19): > 100 µM (inactive) | GI50 (RXF 393): > 100 µM (inactive) | GI50 (MCF7): > 100 µM (inactive) | GI50 (HCT-116): > 100 µM (inactive) | GI50 (CCRF-CEM): > 100 µM (inactive)

O=Nn1c2ccccc2c2cc([N+](=O)[O-])ccc21
GI50 (UO-31): 22.4 µM (inactive) | GI50 (MOLT-4): 14.1 µM (inactive) | GI50 (SK-MEL-2): 36.3 µM (inactive) | GI50 (SK-MEL-28): 18.5 µM (inactive) | GI50 (HCT-15): 22.3 µM | GI50 (HOP-62): 12.3 µM (inactive) | GI50 (NCI/ADR-RES): 20.2 µM (inactive) | GI50 (HCC 2998): 33 µM (inactive) | GI50 (OVCAR-4): 16.8 µM (inactive) | GI50 (M14): 20 µM (inactive) | GI50 (SN12C): 16.8 µM (inactive) | GI50 (IGROV-1): 15.7 µM (inactive) | GI50 (OVCAR-8): 14.6 µM (inactive) | GI50 (U-251): 16.4 µM (inactive) | GI50 (SK-OV-3): 16.1 µM (inactive) | GI50 (SNB-19): 20.7 µM (inactive) | GI50 (RXF 393): 16.4 µM (inactive) | GI50 (MCF7): 22.9 µM (inactive) | GI50 (HCT-116): 13.9 µM (inactive) | GI50 (CCRF-CEM): 14.3 µM (inactive)

O=C1c2cc3c(cc2CC1Cc1ccc2c(c1)CCC2)CCC3 (stereo not given)
GI50 (UO-31): > 100 µM (inactive) | GI50 (MOLT-4): 36.6 µM (inactive) | GI50 (SK-MEL-2): 48.8 µM (inactive) | GI50 (SK-MEL-28): > 100 µM (inactive) | GI50 (HCT-15): 47.5 µM | GI50 (HOP-62): 72.4 µM (inactive) | GI50 (NCI/ADR-RES): 65.3 µM (inactive) | GI50 (HCC 2998): 36.7 µM (inactive) | GI50 (OVCAR-4): 82.6 µM (inactive) | GI50 (M14): > 100 µM (inactive) | GI50 (SN12C): 41.4 µM (inactive) | GI50 (IGROV-1): 31.6 µM (inactive) | GI50 (OVCAR-8): 81.7 µM (inactive) | GI50 (U-251): 37.3 µM (inactive) | GI50 (SK-OV-3): 85.1 µM (inactive) | GI50 (SNB-19): 34.3 µM (inactive) | GI50 (RXF 393): 57.7 µM (inactive) | GI50 (MCF7): 93.1 µM (inactive) | GI50 (HCT-116): 38.6 µM (inactive) | GI50 (CCRF-CEM): 44.6 µM (inactive)

CNC(=O)OC(C)CN1c2ccccc2Sc2ccc(Cl)cc21 (stereo not given)
GI50 (UO-31): > 10 µM (inactive) | GI50 (MOLT-4): > 10 µM (inactive) | GI50 (SK-MEL-2): > 10 µM (inactive) | GI50 (SK-MEL-28): > 10 µM (inactive) | GI50 (HCT-15): > 10 µM | GI50 (HOP-62): > 10 µM (inactive) | GI50 (NCI/ADR-RES): > 10 µM (inactive) | GI50 (HCC 2998): > 10 µM (inactive) | GI50 (OVCAR-4): > 10 µM (inactive) | GI50 (M14): > 10 µM (inactive) | GI50 (SN12C): > 10 µM (inactive) | GI50 (IGROV-1): > 10 µM (inactive) | GI50 (OVCAR-8): > 10 µM (inactive) | GI50 (U-251): > 10 µM (inactive) | GI50 (SK-OV-3): > 10 µM (inactive) | GI50 (SNB-19): > 10 µM (inactive) | GI50 (RXF 393): > 10 µM (inactive) | GI50 (MCF7): > 10 µM (inactive) | GI50 (HCT-116): > 10 µM (inactive) | GI50 (CCRF-CEM): > 10 µM (inactive)
